“And” between values parts separate entries of the source, which are not always exact repeats. Equal entries are not always repeated. Where two headings read alike, the source gives them in different places.
Experiments:
[1] = Pharmacokinetics and tissue distribution in rats; type: in vivo, rat; conditions: for MRT / CL/F / Vz/F: rat serum; for MRT / half-life / Tmax / CL/F / Cmax / AUC(0-t) / AUC(0-inf) / Vz/F / AUC0-t, brain / AUC0-t, liver / AUC0-t, lungs / Cmax, heart / Cmax, kidneys / Cmax, liver / Cmax, lungs / AUC0-t, heart / AUC0-t, kidneys / Cmax, brain / t1/2λz, serum: 0.3 mg/kg i.p.; for Kp: intraperitoneal; for Cmax / AUC(0-t) / AUC(0-inf): mean ± SD; for AUC(0-t): read-out: AUC0-t, serum (converted); for AUC(0-inf): read-out: AUC0-∞, serum (converted)
Method: To assess pharmacokinetic profile and tissue penetration of 2 and 3, the male Wistar rats were a single intraperitoneal (i.p.) injected with these compounds dissolved in tween (vehicle volume 1 mL/kg) at a dose of 0.3 mg/kg, determined in behavioral studies. The animals were killed by decapitation under deep anesthesia (i.p. injection of 50 mg/kg ketamine and 7.5 mg/kg xylazine) at 5, 15, 30, 60, 120 and 240 min after compounds administration (four animals per time point) and blood samples (approximately 5–6 mL) were collected into tubes. Moreover, five tissues (i.e., brain, heart, lungs, kidneys and liver) were harvested, rinsed with cold saline, and the wet weights determined. Blood was allowed to clot for 15–20 min at room temperature and then centrifuged (3000 rpm for 10 min). The obtained serum and tissues were stored frozen at −80 °C until analysis.
The concentrations of both test compounds in serum and tissue homogenates were measured by a reverse-phase high-performance liquid chromatography method with ultraviolet detection (HPLC/UV). […] The mobile phase consisted of methanol/10 mM potassium dihydrogen phosphate buffer, pH 4.6/acetonitrile (51/40/9, v/v/v). The isocratic separation was performed at 1.0 mL/min constant flow-rate with column temperature maintained at 38 °C. The detection wavelength was set at 206 nm for 2 and at 215 nm for 3. […] EZChrome Elite v. 3.3.2 software (VWR, Darmstadt, Germany) was used for data acquisition.
Before analysis, tissue samples were thawed, placed in four volumes (w/v) of phosphate-buffered saline (PBS, pH 7.4) and homogenized using a MICCRA D-1 homogenizer (ART Prozess- & Labortechnik GmbH & Co., Heitersheim, Germany). To isolate 2 or 3, 500 µL of rat serum or tissue homogenate containing this compound were mixed with a 20-μL volume of IS solution (50 ng/mL or 200 ng/g in methanol). As an IS for compound 2 quantification, compound 3 was used and vice versa.
The samples were alkalized with 50 μL of 4 M sodium hydroxide solution, vortex-mixed, and extracted with 1 mL of ethyl acetate/hexane (30/70, v/v) mixture on a shaker (VXR Vibrax, IKA, Legnica, Poland) for 20 min. After centrifugation (Eppendorf, Mini Spin Plus, Hamburg, Germany), the organic layers were transferred into new tubes containing 100 μL of methanol and 0.1 M sulfuric acid (10/90, v/v) mixture. Then, the samples were shaken and centrifuged again. Finally, 20–90 μL of each acidic layer was injected into the HPLC system.
Other pharmacokinetic parameters were determined on subjecting the concentration–time data to non-compartmental analysis using Phoenix WinNonlin 8.2 software (Pharsight Corporation, a Certara Company, Princeton, NJ, USA).

[2] = tested on: MK-801-induced memory deficits in rats; experiment: Novel object recognition (NOR) test, MK-801-induced memory impairment; type: in vivo, rat; conditions: for Total Exploratory Time in T2 Session: mean ± SEM; for minimal effective dose in NOR test: i.p., reversal of MK-801-induced memory impairment
Method: Five days before the experiment, the rats were transferred to the laboratory, labelled and, thereafter, left to acclimate to the new environment. The animals were handling every five days before experiments to minimize the stress reaction. The protocol was adapted from the original work. The test session comprising of two trials separated by an inter-trial interval (ITI) of 1 h was carried out after 2 days of the training session. During the first trial (familiarization, T1) two identical objects (A1 and A2) were presented in the opposite corners of the open field, approximately 10 cm from the walls. During the second trial (recognition, T2) one of the A objects was replaced by a novel object B, so that the animals were presented with the A = familiar and B = novel objects. Both trials lasted for 3 min and the animals were returned to their home cages after T1.
The objects used were the metal Coca-Cola cans and the glass jars filled with sand. […] The sequence of presentations and the location of the objects were randomly assigned to each rat. After each measurement, the floor was cleaned and dried.
The animals explored the objects by looking, licking, sniffing or touching the object but not when leaning against, standing or sitting on the object. Any rat exploring the two objects for less than 5 s within 3 min of T1 or T2 was eliminated from the study. The exploration time of the objects was measured by a blind experimenter. Based on the exploration time (E) of two objects during T2, the discrimination index (DI) was calculated according to the formula: DI = (EB − EA)/(EA + […]). Using this metric, scores approaching zero reflects no preference while positive values reflect a preference for the novel object and negative numbers reflect a preference for the familiar.
MK-801, used to attenuate learning, was administered at the dose of 0.1 mg/kg (i.p.) 30 min before the familiarization phase (T1), while investigated compounds were given 60 min before T1 session. In such scheme of experiment we could observe the impact of investigated compounds on the one type of rats’ memory—episodic memory and one phase of memory process—[…].
The total exploration time in T2 was used to express the influence of the treatment on the exploratory activity of the animals.

[3] = male, Wistar, rat, brain (vs serum), 0.3 mg/kg, AUC0-t tissue / AUC0-t serum, read-out: Kp, brain
[4] = male, Wistar, rat, brain, ip, 0.3 mg/kg, rat, read-out: elimination half-life, brain tissue
[5] = male, Wistar, rat, heart / serum, 0.3 mg/kg, AUC0-t tissue / AUC0-t serum, read-out: Kp, heart
[6] = male, Wistar, rat, heart, ip, 0.3 mg/kg, rat, read-out: Tmax, heart (converted)
[7] = male, Wistar, rat, kidneys (vs serum), 0.3 mg/kg, AUC0-t tissue / AUC0-t serum, read-out: Kp, kidneys
[8] = male, Wistar, rat, kidneys, ip, 0.3 mg/kg, rat, read-out: Tmax, kidneys (converted)
[9] = male, Wistar, rat, liver (vs serum), 0.3 mg/kg, AUC0-t tissue / AUC0-t serum, read-out: Kp, liver
[10] = male, Wistar, rat, liver, ip, 0.3 mg/kg, rat, read-out: Tmax, liver (converted)
[11] = male, Wistar, rat, lungs / serum, 0.3 mg/kg, AUC0-t tissue / AUC0-t serum, read-out: Kp, lungs
[12] = male, Wistar, rat, lungs, ip, 0.3 mg/kg, rat, read-out: Tmax, lungs (converted)
[13] = male, Wistar, rat, serum, ip, 0.3 mg/kg, read-out: CL/F (converted)
[14] = male, Wistar, rat, serum, ip, 0.3 mg/kg, rat, read-out: Tmax, serum (converted)
[15] = male, Wistar, rat, serum, ip, 0.3 mg/kg, rat, read-out: t1/2λz, serum
[16] = 0.3 mg/kg i.p. + MK-801 0.1 mg/kg
[17] = 1 mg/kg i.p. + MK-801 0.1 mg/kg
[18] = 3 mg/kg i.p. + MK-801 0.1 mg/kg

For `CCC(Oc1cccc(Cl)c1Cl)c1nc(N)nc(N2CCN(C)CC2)n1` (racemic) [Compound 2, (RS)-4-[1-(2,3-dichlorophenoxy)propyl]-6-(4-methylpiperazin-1-yl)-1,3,5-triazin-2-amine], the “Kp, brain” value ([1]; AUC0-t tissue / AUC0-t serum) was 2.69, the “Kp, kidneys” value ([1]; AUC0-t tissue / AUC0-t serum) was 16.52 and the MRT ([1]; male, Wistar, ip) was 90.1 min. For the same compound, the Kp [1, 3] was 2.03, the half-life [1, 4] was 149 min and the Kp [1, 5] was 2.3. The Tmax [1, 6] was 5 min, the Kp [1, 7] was 16.5 and the Tmax [1, 8] was 15 min. For the same compound, the Kp [1, 9] was 14.4, the Tmax [1, 10] was 15 min and the Kp [1, 11] was 8.54. The Tmax [1, 12] was 5 min, the CL/F [1, 13] was 515 mL/min/kg and the Tmax [1, 14] was 15 min. For the same compound, the half-life [1, 15] was 116 min, the Cmax ([1]; male, Wistar, serum, ip, rat) was 5.2 ± 2.24 ng/mL and the AUC(0-t) ([1]; male, Wistar, serum, ip, rat) was 7.56 ng·h/mL. For the same compound, the AUC(0-inf) ([1]; male, Wistar, serum, ip, rat) was 8.85 ng·h/mL, the CL/F ([1]; 0.3 mg/kg) was 514.5 ± 165 mL/min/kg and the Vz/F ([1]; 0.3 mg/kg) was 81 L/kg and 80.99 ^a ± 18.22 L/kg. For the same compound, the “AUC0-t, brain” value ([1]; rat) was 1219.94 ± 368.79 ng·min/mL or ng·min/g, the “AUC0-t, liver” value ([1]; rat) was 6523.60 ± 4997.28 ng·min/mL or ng·min/g and the “AUC0-t, lungs” value ([1]; rat) was 3870.66 ± 680.07 ng·min/mL or ng·min/g. The “Cmax, heart” value ([1]; rat) was 8.90 ± 8.15 ng/mL or ng/g, the “Cmax, kidneys” value ([1]; rat) was 65.73 ± 34.94 ng/mL or ng/g and the “Cmax, liver” value ([1]; rat) was 115.22 ± 93.46 ng/mL or ng/g. The “Cmax, lungs” value ([1]; rat) was 54.20 ± 21.61 ng/mL or ng/g, the “AUC0-t, heart” value ([1]; rat, 0.3 mg/kg) was 1040.7 ng·min/mL or ng·min/g and 1040.74 ± 448.65 ng·min/mL or ng·min/g and the “AUC0-t, kidneys” value ([1]; rat, 0.3 mg/kg) was 7488.1 ng·min/mL or ng·min/g and 7488.06 ± 4372.92 ng·min/mL or ng·min/g. The “Cmax, brain” value ([1]; rat, 0.3 mg/kg) was 11.63 ± 3.13 ng/mL or ng/g, the “t1/2λz, serum” value ([1]; rat, 0.3 mg/kg) was 116 min and 116.18 ^a ± 17.14 min and the “Total Exploratory Time in T2 Session” value [2, 16] was 52.67 ± 5.37 s. For the same compound, the “Total Exploratory Time in T2 Session” value [2, 17] was 40.33 ± 6.66 s, the “Total Exploratory Time in T2 Session” value [2, 18] was 42.88 ± 2.10 F(4,27) = 3.5450; p < 0.05 s and the “minimal effective dose in NOR test” value [2] was 0.3 mg/kg.
In the case of `CCC(Oc1ccccc1)c1nc(N)nc(N2CCN(C)CC2)n1` (racemic) [Compound 3, (RS)-4-(4-methylpiperazin-1-yl)-6-(1-phenoxypropyl)-1,3,5-triazin-2-amine], the “Kp, brain” value ([1]; AUC0-t tissue / AUC0-t serum) is reported as 2.03, the “Kp, liver” value ([1]; AUC0-t tissue / AUC0-t serum) is reported as 10.54 and the MRT ([1]; male, Wistar, ip) is reported as 79.3 min. For the same compound, the Kp [1, 3] was 2.63, the Tmax ([1]; male, Wistar, rat, brain, ip, 0.3 mg/kg, rat, read-out: Tmax, brain (converted)) was 5 min and the half-life [1, 4] was 112 min. It also gave a Kp [1, 5] of 2.49, a Tmax [1, 6] of 5 min and a Kp [1, 7] of 6.03. For the same compound, the Tmax [1, 8] was 15 min, the Kp [1, 9] was 10.5 and the Tmax [1, 10] was 5 min. The Kp [1, 11] was 6.41, the Tmax [1, 12] was 5 min and the CL/F [1, 13] was 587 mL/min/kg. The Tmax [1, 14] was 5 min, the half-life [1, 15] was 76.7 min and the Cmax ([1]; male, Wistar, serum, ip, rat) was 6.32 ± 5.03 ng/mL. For the same compound, the AUC(0-t) ([1]; male, Wistar, serum, ip, rat) was 7.07 ng·h/mL, the AUC(0-inf) ([1]; male, Wistar, serum, ip, rat) was 8.53 ng·h/mL and the CL/F ([1]; 0.3 mg/kg) was 586 ± 298.7 mL/min/kg. For the same compound, the Vz/F ([1]; 0.3 mg/kg) was 65 L/kg and 64.81 ± 21.78 L/kg, the “AUC0-t, heart” value ([1]; rat) was 1057.37 ± 285.41 ng·min/mL or ng·min/g and the “AUC0-t, kidneys” value ([1]; rat) was 2557.08 ± 1084.42 ng·min/mL or ng·min/g. The “AUC0-t, lungs” value ([1]; rat) was 2715.09 ± 1000.42 ng·min/mL or ng·min/g, the “Cmax, heart” value ([1]; rat) was 21.83 ± 17.16 ng/mL or ng/g and the “Cmax, kidneys” value ([1]; rat) was 41.25 ± 8.41 ng/mL or ng/g. The “Cmax, liver” value ([1]; rat) was 129.62 ± 106.23 ng/mL or ng/g, the “Cmax, lungs” value ([1]; rat) was 73.65 ± 63.94 ng/mL or ng/g and the “AUC0-t, brain” value ([1]; rat, 0.3 mg/kg) was 859.1 ng·min/mL or ng·min/g and 859.08 ± 312.87 ng·min/mL or ng·min/g. The “AUC0-t, liver” value ([1]; rat, 0.3 mg/kg) was 4467.2 ng·min/mL or ng·min/g and 4467.18 ± 2249.99 ng·min/mL or ng·min/g, the “Cmax, brain” value ([1]; rat, 0.3 mg/kg) was 11.35 ± 6.93 ng/mL or ng/g and the “t1/2λz, serum” value ([1]; rat, 0.3 mg/kg) was 77 min and 76.65 ± 18.07 min. The “Total Exploratory Time in T2 Session” value ([2]; 0.1 mg/kg i.p. + MK-801 0.1 mg/kg) was 47.33 ± 4.79 s, the “Total Exploratory Time in T2 Session” value [2, 16] was 38.14 ± 4.18 s and the “Total Exploratory Time in T2 Session” value [2, 17] was 35.57 ± 3.76 s. The “Total Exploratory Time in T2 Session” value [2, 18] was 34.14 ± 1.22; F(5,47) = 1.9394; NS s and the “minimal effective dose in NOR test” value [2] was 0.1 mg/kg.

Source: PMC8509428, “The Phenoxyalkyltriazine Antagonists for 5-HT6 Receptor with Promising Procognitive and Pharmacokinetic Properties In Vivo in Search for a Novel Therapeutic Approach to Dementia Diseases” (International Journal of Molecular Sciences, 2021)
